Laboratory results from ChEMBL document CHEMBL1201862, “PubChem BioAssay data set” (2004).
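Where inhibition never reached the appropriate level, the endpoint shown equals the highest concentration tested. Otherwise, values were interpolated linearly from a five-concentration, 48-hour dose response in 96-well plates. GI50 marks 50% less growth.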 Activity calls are given as the source filed them. Rule as the data show it: active = GI50 up to about 1.1 µM and inactive = higher.

What was measured:
Assay in all cases: NCI anticancer screen, dose series, 48 h
KM-20L2 = test system: KM-20L2
DMS-114 = test system: DMS-114
M19-MEL = test system: M19-MEL
DMS-273 = test system: DMS-273
RXF 631 = test system: RXF 631
LXFL 529 = test system: LXFL 529
HOP-18 = test system: HOP-18
SNB-78 = test system: SNB-78
XF498 = test system: XF498

Row | SMILES | GI50 (KM-20L2) | GI50 (DMS-114) | GI50 (M19-MEL) | GI50 (DMS-273) | GI50 (RXF 631) | GI50 (LXFL 529) | GI50 (HOP-18) | GI50 (SNB-78) | GI50 (XF498)
1 | N=C(N)NCCCC(Nc1c2ccccc2[n+]([O-])c2ccccc12)C(=O)O (configuration not stated) | 95.7 µM (inactive) | 23.6 µM (inactive) | 44.7 µM (inactive) | 40.5 µM (inactive) | > 100 µM (inactive) | 22.5 µM (inactive) | 33.3 µM (inactive) |  | 
2 | CCCCNC(=S)OCCC(C)CCCC(C)C (configuration not stated) | > 100 µM (inactive) | > 100 µM (inactive) | > 100 µM (inactive) | > 100 µM (inactive) |  | > 100 µM (inactive) | > 100 µM (inactive) | > 100 µM (inactive) | > 100 µM (inactive)
3 | CN(C)C1=NC2=S(SC(Nc3ccccc3)=N2)S1 (configuration not stated) | 32.9 µM (inactive) | 3.47 µM (inactive) | 30 µM (inactive) | 14.8 µM (inactive) | > 100 µM (inactive) | 10 µM (inactive) | 25 µM (inactive) | 34.4 µM (inactive) | 14 µM (inactive)
4 | CC1CCC2c3c([nH]c4ccccc34)C3C(=O)N(c4ccccc4)C(=O)C3C2C1 (configuration not stated) | > 250 µM (inactive) | 45.5 µM (inactive) | > 250 µM (inactive) | 40.6 µM (inactive) | 89.1 µM (inactive) | > 250 µM (inactive) | 18.9 µM (inactive) | 10.6 µM (inactive) | 1.82 µM (inactive)
5 | CCN(CC)CC(=O)NC1c2ccccc2Oc2ccccc21 | > 100 µM (inactive) | > 100 µM (inactive) | > 100 µM (inactive) | > 100 µM (inactive) |  | > 100 µM (inactive) |  | > 100 µM (inactive) | > 100 µM (inactive)
6 | CN1C(c2ccccc2)CC(C)(O)CC1c1ccccc1 (configuration not stated) | > 100 µM (inactive) | > 100 µM (inactive) | > 100 µM (inactive) | > 100 µM (inactive) | > 100 µM (inactive) | > 100 µM (inactive) |  | > 100 µM (inactive) | 
7 | CCCCCC(=O)OC[n+]1ccc2c(C)c3[nH]c4ccc(OC)cc4c3c(C)c2c1 | > 100 µM (inactive) | 0.628 µM (active) |  | 0.0341 µM (active) | 0.429 µM (active) | 0.366 µM (active) |  | 0.449 µM (active) | 
8 | O=C1CCC(=O)c2cc(Br)ccc2N1 | > 100 µM (inactive) | > 90.6 µM (inactive) | > 70.5 µM (inactive) | > 100 µM (inactive) | > 100 µM (inactive) | > 100 µM (inactive) | > 100 µM (inactive) | > 100 µM (inactive) | > 100 µM (inactive)
9 | C/C(CC(=O)Nc1cccc([N+](=O)[O-])c1)=N\NC(=O)C[n+]1ccccc1 | > 100 µM (inactive) | > 100 µM (inactive) | > 100 µM (inactive) |  |  | > 100 µM (inactive) |  | > 100 µM (inactive) | > 100 µM (inactive)
10 | C/C(=N\N(C)C)c1sc(-n2nc(-c3ccccc3)cc2-c2ccccc2)nc1C | > 100 µM (inactive) | 72.6 µM (inactive) | > 100 µM (inactive) | > 100 µM (inactive) | 43.9 µM (inactive) | > 100 µM (inactive) | > 100 µM (inactive) | > 100 µM (inactive) | > 100 µM (inactive)
11 | CCOC(=O)C(/C(=N\NC(=O)OC)C(=O)Nc1cc(OC)ccc1OC)c1cnc2ccccc2n1 (configuration not stated) |  | > 100 µM (inactive) | > 100 µM (inactive) |  |  | > 100 µM (inactive) | 85.9 µM (inactive) | > 100 µM (inactive) | > 100 µM (inactive)
12 | Cc1c(CNc2ccc(Cl)c(C(=O)NC(CC(=O)O)C(=O)O)c2)ccc2nc(N)nc(N)c12 (configuration not stated) | 0.665 µM (active) | 0.038 µM (active) | 13.7 µM (inactive) | 0.0617 µM (active) |  |  | > 54.8 µM (inactive) | > 100 µM (inactive) | > 100 µM (inactive)
13 | NNC(=O)CCC(=O)Nc1ccc(Cl)cc1Cl | > 100 µM (inactive) | > 100 µM (inactive) | > 100 µM (inactive) | 31.8 µM (inactive) | > 100 µM (inactive) | 29.7 µM (inactive) |  | > 100 µM (inactive) | > 100 µM (inactive)
14 | O=CC1CCCc2ccccc21 (configuration not stated) | > 100 µM (inactive) | > 47.3 µM (inactive) | > 100 µM (inactive) | > 100 µM (inactive) |  | > 100 µM (inactive) | > 100 µM (inactive) | > 100 µM (inactive) | > 100 µM (inactive)
15 | CC(=O)Nc1ccc(/C=C/C(=O)c2sc(-c3cccnc3)nc2C)cc1 | > 100 µM (inactive) | > 100 µM (inactive) | > 100 µM (inactive) | > 100 µM (inactive) |  |  | > 100 µM (inactive) | > 100 µM (inactive) | 
16 | CN1CCN(c2ccc3[nH]c(-c4ccc5[nH]c(-c6ccc(O)cc6)nc5c4)nc3c2)CC1 | 158 µM (inactive) | 38.5 µM (inactive) | 18.1 µM (inactive) | 21.6 µM (inactive) |  |  | 209 µM (inactive) | 265 µM (inactive) | 34.4 µM (inactive)
17 | COc1ccc(-n2/c(=N/C(=S)N(C)C)ss/c2=N\C(=S)N(C)C)cc1 | 27.7 µM (inactive) | 7.36 µM (inactive) | 7.43 µM (inactive) | 10.7 µM (inactive) |  |  |  | 39.4 µM (inactive) | 
18 | CC(=O)OC(OC(C)=O)c1ncccc1C(=O)OC(C)C | 39.6 µM (inactive) | > 100 µM (inactive) | 30.1 µM (inactive) | 31.3 µM (inactive) |  | 78.5 µM (inactive) | > 100 µM (inactive) | > 100 µM (inactive) | > 100 µM (inactive)
19 | O=C(CN1CCN(c2cccc(Cl)c2)CC1)N1CCc2c([nH]c3ccccc23)C1c1cccnc1 (configuration not stated) | 3 µM (inactive) | 4.25 µM (inactive) | 7.76 µM (inactive) | 6.68 µM (inactive) | 7.31 µM (inactive) |  | 33.2 µM (inactive) | 18.3 µM (inactive) | 12.2 µM (inactive)
20 | O=C(c1ccccc1)[C@H]1Nc2cnccc2C2c3ccccc3CC21 (some centres not stated) | 21.2 µM (inactive) | 10 µM (inactive) | 8.3 µM (inactive) | 26.6 µM (inactive) | 19.9 µM (inactive) | 4.38 µM (inactive) | 5.6 µM (inactive) | 15.5 µM (inactive) | 23.7 µM (inactive)
21 | CC(C)S(=O)(=O)ON1C(=O)c2ccc(N(C)C)cc2C1=O | 20.4 µM (inactive) |  |  | 19.8 µM (inactive) | 13.2 µM (inactive) | 9.91 µM (inactive) | 13.5 µM (inactive) | 31.3 µM (inactive) | 17.7 µM (inactive)
22 | COC(=O)N/N=C/c1oc(-c2cccc([N+](=O)[O-])c2)c(-c2cccc([N+](=O)[O-])c2)c1[N+](=O)[O-] | > 100 µM (inactive) |  | > 100 µM (inactive) | > 100 µM (inactive) |  | > 100 µM (inactive) | > 100 µM (inactive) |  | > 100 µM (inactive)
23 | Cc1cc(Cl)ccc1NC(=O)C(=O)Cc1nc2ccc(C(=O)c3ccccc3)cc2nc1O | > 100 µM (inactive) | 33.4 µM (inactive) | > 100 µM (inactive) | 49.2 µM (inactive) |  | 48.6 µM (inactive) | > 100 µM (inactive) |  | > 100 µM (inactive)
24 | O=[N+]([O-])c1cccc(/C=N\NS(=O)(=O)c2ccc(Cl)cc2)c1O | > 100 µM (inactive) |  | > 100 µM (inactive) | > 100 µM (inactive) | > 100 µM (inactive) | 83.6 µM (inactive) | 37.1 µM (inactive) | > 100 µM (inactive) | 
25 | N#CCCN(c1ccc(/C=C2\N=C(Cc3ccccc3)OC2=O)cc1)S(=O)(=O)c1ccccc1 | > 100 µM (inactive) | > 100 µM (inactive) |  | > 100 µM (inactive) |  | > 100 µM (inactive) |  | > 100 µM (inactive) | > 100 µM (inactive)
